Source: PMC8198038, “In Vitro Evaluation of Antiproliferative Properties of Novel Organotin(IV) Carboxylate Compounds with Propanoic Acid Derivatives on a Panel of Human Cancer Cell Lines” (Molecules, 2021)

How the values were obtained:
[1] = test system: MCF-7 (breast cancer) cells; assay: MTT assay, MCF-7 cells; format: cell-based, human; conditions: for IC50: MTT assay, 48 h incubation, read-out: IC50 (mean ± SD), MCF-7, MTT
Protocol: (§1) The cell proliferations of ligand precursors and organotin(IV) compounds were evaluated with the aid of MTT (3-(4,5-dimethylthiazol-2-yl)-2,5-12 diphenyltetrazolium bromide) and CV (crystal violet) assays toward prostate (PC-3), colon (HT-29), breast (MCF-7) and hepatic (HepG2) cancer cell lines, and normal mouse embryonic fibroblast cells (NIH 3T3). The cells were cultivated in T75 flasks containing 10 mL of complete medium and kept at 37 °C and 5% CO2 […]. The nutrient medium was RPMI-1640 (PAA Laboratories) supplemented with 10% foetal bovine serum, L-glutamine, and penicillin/streptomycin (Sigma). Afterward, 5.000 cells of PC-3 and MCF-7 and 1.500 cells of HT-29 and HepG2 were transferred into 96 well-plates and used for MTT and CV assays. For microscopy investigations as well as FACS measurements (except for ROS/RNS measurements), MCF-7 cells were seeded overnight in 6-well plates (150,000 cells/well) in […] of complete medium. […] In all assays, control cells were untreated MCF-7 cells incubated for the same time period as treated cells and treated with appropriate reagents in various assays. BD FACS Aria III was used for flow cytometry experiments and results were analysed using BD FACSDiva software (BD Biosciences, Heidelberg, Germany) and Cyflogic (V 1.2.1, CyFlo Ltd., Turku, Finland). A fluorescence microscope Invitrogen EVOS FL 2 Auto 2 Cell Imaging System was used for visualization of the cells as well as for detection of fluorescence in the cells.
(§2) Ligands HL1‒HL3, organotin(IV) compounds, and cisplatin were investigated in 9 different concentrations (100, 50, 10, 5, 1, 0.5, 0.1, 0.05, 0.01 μM). Using the complete medium, each stock solution of the test compounds (20 mM in DMSO) was diluted to obtain the working solution. The final concentration of DMSO never overstepped 0.5%, which is non-toxic to the cells. Three technical replicates were performed for each concentration. The treated cells were incubated for 48 h at 37 °C under 5% CO2 and the viability of the cells was determined using MTT and CV assays according to the literature procedure. The IC50 values, defined as 50% inhibitory concentration, were calculated with a four-parameter logistic function and presented in a mean. All experiments were performed in triplicate.

[2] = test system: PC-3 (human prostate cancer) cells; assay: CV (crystal violet) assay, PC-3 cells; format: cell-based; conditions: CV assay, 48 h incubation; read-out: IC50 (mean ± SD), PC-3, CV
Protocol: as §1, §2

[3] = test system: MCF-7 (breast cancer) cells; assay: CV (crystal violet) assay, MCF-7 cells; format: cell-based, human; conditions: for IC50: CV assay, 48 h incubation, read-out: IC50 (mean ± SD), MCF-7, CV
Protocol: as §1, §2

[4] = test system: HepG2 (hepatocellular cancer) cells; assay: CV (crystal violet) assay, HepG2 cells; format: cell-based, human; conditions: CV assay, 48 h incubation; read-out: IC50 (mean ± SD), HepG2, CV
Protocol: as §1, §2

MCF-7 cells [5] = assay: Morphological analysis (AO and DAPI staining); format: cell-based, human; conditions: 24 h, IC50 or 2 × IC50
Protocol: The morphological changes of MCF-7 cell death induced by Ph3SnL1 and cisplatin were studied by AO (acridine orange) and DAPI (4′,6-diamidino-2-phenylindole) staining, and examined under a fluorescence microscope. Acridine orange can cross the cell membrane and viable and early apoptotic cells can be detected. Chromatin condensation, seen as dense green areas, or membrane blebbing, both appearing in apoptosis, is easily proven by AO staining. After 24 h of treatment (IC50 and 2 × IC50 concentrations) the cells were stained with acridine orange (3 μg/mL AO in PBS), and observed with a fluorescence microscope (Fluorescence microscope-Invitrogen EVOS FL 2 Auto 2 Cell Imaging System). On the other hand, for the DAPI assay 0.5 mL of Triton (0.1% in PBS) was added to the treated cells after the fixing the cells with 0.5 mL of 4% paraformaldehyde (PFA) for 8 min. Thereafter, 0.5 mL of DAPI solution was used to stain the cells for 5 min in the dark. The morphological characteristics were visualized under a fluorescence microscope (Fluorescence microscope-Invitrogen EVOS FL 2 Auto 2 Cell Imaging System).

MCF-7 cells [6] = assay: Activation of caspases (apostat, flow cytometry); format: cell-based, human
Excerpt: The activation of caspase is closely linked to cell apoptosis, the controlled cell death, via the mitochondrial pathway or cell death receptor [23, 24]. […] Due to this, it can be concluded that cell death is accomplished through caspase-independent apoptosis. Moreover, as MCF-7 cell line is caspase-3 deficient, this was an anticipated result. Besides, the accomplishment of apoptosis induced with Ph3SnL1 in MCF-7 cells (confirmed with AO and DAPI assays) was not disturbed as this type of cell death may be activated through other death signals not involving caspase activation.
The cells were resuspended in 1 mL of PBS and analysed with flow cytometry.

MCF-7 cells [7] = assay: ROS/RNS (DHR) and NO (DAF-FM) production, flow cytometry; format: cell-based, human; conditions: 48 h, IC50 concentration
Excerpt: Reactive oxygen (ROS) and nitrogen species (RNS) are natural by-products of the aerobic metabolism in cells. At physiological concentrations, they play a significant role in regulating numerous cellular processes. On the other hand, it is well-known that the reactive oxygen (O2^•−, H2O2, OH^•−) and nitrogen species (NO) are highly reactive molecules that easily damage cells by interacting with biomolecules such as proteins, lipids, carbohydrates, and nucleic acids, thus triggering different pathological conditions (inflammation, cardiovascular disorders, neurodegenerative diseases, and the formation of cancer cells).
For the investigation of ROS/RNS production the cells from the T25 flask were collected by applying 1 mL of trypsin and diluted with 9 mL of complete medium. Using 1 mL of DHR (dihydrorhodamine) working solution the cells were stained and incubated at 37 °C and 5% CO2 for 10 min. The staining process was stopped by applying 4 mL of complete medium, then the solution was centrifuged for 3 min at 1000 rpm and the supernatant was discarded. The cells were resuspended in complete medium (1 mL/well) and seeded in a 6 well plate. […] The prepared cells were analysed by flow cytometry.
The cells were washed with PBS and then treated with 1 mL of DAF-FM (4-amino-5-methylamino-2,7′-diflurofluorescin diacetate) working solution. […] The prepared cells were analysed by flow cytometry.

Row | SMILES | IC50 [1] [nM] | fold higher activity compared to cisplatin against MCF-7 ([1]; Table 1 IC50 values, 48 h) | IC50 [2] [nM] | times more powerful antiproliferative activity than cisplatin in MCF-7 cells ([3]; CV assay IC50 values) | IC50 [3] [nM] | IC50 [4] [nM] | morphological changes (AO and DAPI staining) (MCF-7 cells [5]) | mode of cell death (MCF-7 cells [6]) | caspase activation (apostat) (MCF-7 cells [6]; 48 h, IC50 concentration) | production of ROS/RNS species (MCF-7 cells [7])
1 | O=C(CCc1nc(-c2ccccc2)c(-c2ccccc2)o1)[O][Sn]([c]1ccccc1)([c]1ccccc1)[c]1ccccc1 [Ph3SnL1, (3-(4,5-Diphenyloxazol-2-yl)propanoato)triphenyltin(IV)] | 132 ± 21 | up to 120 fold | 556 ± 38 | up to 70 times | 218 ± 25 | 366 ± 51 | notable morphological changes | induces caspase-independent apoptosis | did not induce the activation of caspases | does not affect the production of ROS and RNS
2 | N.N.[Cl][Pt][Cl] [cisplatin, reference compound] | 15200 ± 1040 | – | 13000 ± 450 | – | 15800 ± 550 | 3650 ± 350 | – | – | – | elevates the production of both reactive oxygen and nitrogen species
